The values below come from patent US20220098196A1, “TRAPPING-FREE PARP INHIBITORS” (The Board of Regents of the University of Texas System, priority 2019, published 2022).

SMILES strings stand for the structures. pIC50: −log10 of the molar value.

Assay [1] concerns the target T1, PARP1 (Mus musculus, UniProt P11103).
T1 construct: host or cells: C2C12 myoblasts / differentiated myotubes
The assay is described as follows: PARP1 trapping in C2C12 myotubes. Format: cell-based. The following applies: 5 μM 24 hours, MMS 0.01% 2 hours. Here is the method:
Subcellular Proteins Extraction. […] The cytosolic proteins were isolated by incubating the cells with the CEB buffer for 10 min at 4° C., and centrifuged at 500 g for 5 min. The membrane proteins were isolated by incubating the pellet from previous step with the MEB buffer for 10 min at 4° C., and centrifuged at 3000 g for 5 min. The soluble nuclear proteins were isolated by incubating the pellet from previous step with the NEB buffer for 30 min at 4° C., and centrifuged at 5000 g for 5 min. The chromatin bound proteins were isolated by incubating the pellet from previous step with the NEB buffer supplemented with nuclease for 15 min at RT and centrifuged at 16000 g for 5 min. Protein concentrations were determined by the BCA assay kit.

The next assay concerns C2C12 myotubes. The assay is described as follows: NAD+ measurement in C2C12 myotubes after MMS. Format: cell-based, mouse. The following applies: 5 μM 24 hours pretreatment, MMS 0.01% 4 hours (MMS alone 31%). The procedure: ATP and NAD^+ measurement. ATP levels were measured by a luminescence assay using the CellTiter-Glo luminescent kit (Promega). […] The cells were balanced for 30 min at RT. One hundred microliters of the CellTiter-Glo reagent was added into each well and incubated for 10 min. ATP levels were determined according the manufacturer's instruction. NAD^+ levels were assayed using an NAD/NADH quantification kit (Sigma). […] Approximately 2×10^5 cells were washed with 1 mL cold PBS and lysed in 400 μl of the extraction buffer. […] The samples were vortexed for 15 sec and centrifuged at 13,000 g for 10 min to remove the insoluble materials. NAD^+ was quantified according to the manufacturer's instruction (Sigma). Fifty microliters of the extracts were used in the NAD^+ assay, and the values were normalized by the amount of protein in each sample.

In assay [2] the target is PARP1 (Homo sapiens, UniProt P09874). The assay is described as follows: In Vitro PARP1 Activity Assay (PARP universal chemiluminescent assay kit). In kind it is biochemical. The following applies: mean±SEM (n=3). The procedure: In Vitro PARP1 Activity Assay. […] Briefly, the histone-coated strip wells were hydrated with the assay buffer for 30 min. The various compounds were added and were incubated with the PARP enzyme for 10 min. The reaction cocktail containing biotinylated NAD^+ was then added into the system, which was incubated for 1 hour to activate PARP1. After the reaction, the wells were washed twice with 0.1% Triton X-100/PBS and twice with PBS. The wells were incubated with Strep-HRP for another hour and were washed again as described above. PeroxyGlow reagents were mixed and added into the strip wells, and the biotin signal on coated histone was immediately measured with chemiluminescence on a Synergy microplate reader (Bio-Tek). The well without PARP1, and the well with PARP1 only was used as the negative (0%) and positive (100%) control, respectively.
Sequence of PARP1 (Homo sapiens, UniProt P09874) (P09874 whole entry): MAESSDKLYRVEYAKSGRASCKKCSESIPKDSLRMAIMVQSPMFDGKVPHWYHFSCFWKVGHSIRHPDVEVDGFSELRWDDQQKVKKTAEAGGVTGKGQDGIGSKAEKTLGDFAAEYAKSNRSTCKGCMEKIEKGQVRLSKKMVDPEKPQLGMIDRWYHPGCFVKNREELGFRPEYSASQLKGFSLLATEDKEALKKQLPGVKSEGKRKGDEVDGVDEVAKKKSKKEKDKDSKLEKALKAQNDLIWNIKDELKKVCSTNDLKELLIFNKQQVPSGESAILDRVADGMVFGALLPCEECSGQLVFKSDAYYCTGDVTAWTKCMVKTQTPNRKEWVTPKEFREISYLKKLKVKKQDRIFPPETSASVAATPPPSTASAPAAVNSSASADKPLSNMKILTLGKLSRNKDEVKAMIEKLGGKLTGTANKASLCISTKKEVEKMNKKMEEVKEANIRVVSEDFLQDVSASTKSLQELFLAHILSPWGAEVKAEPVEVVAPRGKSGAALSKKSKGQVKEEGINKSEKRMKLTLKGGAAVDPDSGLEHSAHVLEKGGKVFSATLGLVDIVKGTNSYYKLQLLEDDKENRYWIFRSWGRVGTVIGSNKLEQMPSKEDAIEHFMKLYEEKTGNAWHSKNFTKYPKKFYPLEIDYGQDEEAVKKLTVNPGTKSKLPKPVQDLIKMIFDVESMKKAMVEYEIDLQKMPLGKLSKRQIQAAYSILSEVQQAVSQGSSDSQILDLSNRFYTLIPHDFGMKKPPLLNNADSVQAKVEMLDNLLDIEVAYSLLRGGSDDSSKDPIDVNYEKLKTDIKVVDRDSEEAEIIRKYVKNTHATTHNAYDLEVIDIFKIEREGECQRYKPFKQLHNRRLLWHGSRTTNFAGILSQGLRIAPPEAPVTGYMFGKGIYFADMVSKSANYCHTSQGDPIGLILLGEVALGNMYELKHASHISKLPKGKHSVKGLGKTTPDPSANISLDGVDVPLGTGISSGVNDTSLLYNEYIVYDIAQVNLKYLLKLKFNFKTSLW

Assay [3] deals with T2, PARP1 (Rattus norvegicus, UniProt P27008).
T2 construct: endogenous in cells; host or cells: primary neonatal rat cardiomyocytes
T2 sequence (P27008 whole entry): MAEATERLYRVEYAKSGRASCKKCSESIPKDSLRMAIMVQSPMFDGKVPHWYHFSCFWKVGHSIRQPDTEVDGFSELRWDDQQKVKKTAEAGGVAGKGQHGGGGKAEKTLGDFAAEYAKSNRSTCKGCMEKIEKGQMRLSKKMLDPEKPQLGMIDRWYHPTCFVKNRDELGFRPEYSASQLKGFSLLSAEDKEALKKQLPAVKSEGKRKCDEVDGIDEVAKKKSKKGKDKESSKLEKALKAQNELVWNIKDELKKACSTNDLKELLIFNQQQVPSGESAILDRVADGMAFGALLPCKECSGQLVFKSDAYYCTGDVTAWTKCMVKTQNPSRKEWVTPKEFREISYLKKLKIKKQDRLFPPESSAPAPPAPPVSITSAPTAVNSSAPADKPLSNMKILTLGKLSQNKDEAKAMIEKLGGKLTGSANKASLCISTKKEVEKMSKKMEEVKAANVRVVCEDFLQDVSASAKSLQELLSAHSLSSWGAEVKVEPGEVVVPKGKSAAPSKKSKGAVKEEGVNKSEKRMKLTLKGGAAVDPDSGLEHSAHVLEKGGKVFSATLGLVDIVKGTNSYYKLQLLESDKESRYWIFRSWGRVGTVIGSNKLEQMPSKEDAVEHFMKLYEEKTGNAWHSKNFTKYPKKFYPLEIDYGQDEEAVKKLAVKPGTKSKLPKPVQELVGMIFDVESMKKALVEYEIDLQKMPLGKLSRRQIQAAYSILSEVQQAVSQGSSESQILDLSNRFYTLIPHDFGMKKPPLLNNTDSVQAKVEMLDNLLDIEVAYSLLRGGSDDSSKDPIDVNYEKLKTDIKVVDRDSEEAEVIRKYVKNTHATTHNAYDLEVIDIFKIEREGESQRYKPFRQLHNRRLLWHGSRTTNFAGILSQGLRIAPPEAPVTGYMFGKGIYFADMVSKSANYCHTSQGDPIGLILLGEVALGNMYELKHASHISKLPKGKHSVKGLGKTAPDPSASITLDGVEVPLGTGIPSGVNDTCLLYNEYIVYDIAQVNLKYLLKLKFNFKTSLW
The assay is described as follows: PARP1 degradation in primary rat cardiomyocytes (immunoblotting). In kind it is cell-based. The following applies: 24 hours.
Procedure: Immunoblotting. Cells were washed once with cold PBS and lysed with the SDS lysis buffer (1% SDS, 10 mM HEPES pH 7.0, 2 mM MgCl2, 500 U universal nuclease). Protein concentrations were determined by the BCA assay kit (Thermo Fisher Scientific). A total of 20 μg proteins (40 μg proteins for PAR immunoblotting experiments) were loaded onto the SDS-PAGE gel and were then transferred to a nitrocellulose membrane. Nitrocellulose membranes were then blocked with the TBST buffer containing 5% milk (Bio-Rad). Membranes were incubated with the primary antibodies overnight at 4° C. and the secondary antibodies for 1 hour at room temperature (RT). The blots were developed using enhanced chemiluminescence and were exposed on autoradiograph films.

T1 sequence (P11103 whole entry): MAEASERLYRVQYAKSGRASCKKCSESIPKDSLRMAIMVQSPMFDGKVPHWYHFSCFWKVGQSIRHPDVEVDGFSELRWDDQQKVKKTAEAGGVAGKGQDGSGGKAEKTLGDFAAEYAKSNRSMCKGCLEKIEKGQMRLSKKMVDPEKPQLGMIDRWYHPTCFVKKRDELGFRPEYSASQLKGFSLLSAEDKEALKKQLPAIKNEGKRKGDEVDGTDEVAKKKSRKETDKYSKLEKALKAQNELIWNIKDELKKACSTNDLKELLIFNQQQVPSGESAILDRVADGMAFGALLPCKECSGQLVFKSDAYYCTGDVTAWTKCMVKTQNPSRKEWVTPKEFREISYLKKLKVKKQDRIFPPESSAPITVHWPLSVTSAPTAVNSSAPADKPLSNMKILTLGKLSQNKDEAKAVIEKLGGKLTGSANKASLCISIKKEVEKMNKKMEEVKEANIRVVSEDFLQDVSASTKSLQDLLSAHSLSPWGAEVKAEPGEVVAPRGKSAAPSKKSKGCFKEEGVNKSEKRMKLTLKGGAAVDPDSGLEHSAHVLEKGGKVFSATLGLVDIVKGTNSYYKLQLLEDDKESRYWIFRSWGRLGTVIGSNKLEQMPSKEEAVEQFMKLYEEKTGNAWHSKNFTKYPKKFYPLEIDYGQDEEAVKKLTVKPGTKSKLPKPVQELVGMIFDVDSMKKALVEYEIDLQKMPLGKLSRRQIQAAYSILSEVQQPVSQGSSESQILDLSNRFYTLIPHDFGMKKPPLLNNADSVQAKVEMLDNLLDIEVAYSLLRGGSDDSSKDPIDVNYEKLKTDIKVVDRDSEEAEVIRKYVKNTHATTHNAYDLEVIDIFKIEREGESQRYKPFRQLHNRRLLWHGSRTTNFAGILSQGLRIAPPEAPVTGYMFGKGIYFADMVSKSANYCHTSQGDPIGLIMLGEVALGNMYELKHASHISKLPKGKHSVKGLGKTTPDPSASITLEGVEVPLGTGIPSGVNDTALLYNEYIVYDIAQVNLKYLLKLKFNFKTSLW

As usually defined, the pIC50 is −log10 of the IC50, conventionally taken in molar units. Turning to `CN(CCCCc1cn(CCOCCOCCOCCNc2cccc3c2C(=O)N(C2CCC(=O)NC2=O)C3=O)nn1)Cc1ccc(-c2[nH]c3cc(F)cc4c3c2CCNC4=O)cc1` (stereo not shown) [iRucaparib, Rucaparib-Triazole-PEG3-Pomalidomide], the “PARP1 trapping (PARP1-DNA complexes, chromatin-bound fraction)” value at PARP1 [1] is listed as “undetectable in the chromatin-bound fraction”. In addition, the “NAD+ levels, % of that in control cells” value with C2C12 myotubes was 74%. On PARP1 [2], the pIC50 is 7.74. The PARP1 degradation result on PARP1 [3] is “robust iRucaparib-induced PARP1 degradation”.
